Results taken from patent US20240254087A1, “SELECTIVE, PARTIAL, AND ARRESTIN-BIASED 5-HT2A AGONISTS WITH UTILITY IN VARIOUS DISORDERS” (Saint Joseph's University, priority 2021, published 2024).

Assays:
5-HT2C [1] = target: T1, 5-HT2C (Homo sapiens, UniProt P28335); assay: Ca2+ flux assay, 5-HT2C; assay type: cell-based; design: expressed in transfected cells; settings: for EC50: 5-HT2C EC50, nM; for Emax: read-out: 5-HT2C Emax % 5-HT
T1 sequence (P28335 33-458): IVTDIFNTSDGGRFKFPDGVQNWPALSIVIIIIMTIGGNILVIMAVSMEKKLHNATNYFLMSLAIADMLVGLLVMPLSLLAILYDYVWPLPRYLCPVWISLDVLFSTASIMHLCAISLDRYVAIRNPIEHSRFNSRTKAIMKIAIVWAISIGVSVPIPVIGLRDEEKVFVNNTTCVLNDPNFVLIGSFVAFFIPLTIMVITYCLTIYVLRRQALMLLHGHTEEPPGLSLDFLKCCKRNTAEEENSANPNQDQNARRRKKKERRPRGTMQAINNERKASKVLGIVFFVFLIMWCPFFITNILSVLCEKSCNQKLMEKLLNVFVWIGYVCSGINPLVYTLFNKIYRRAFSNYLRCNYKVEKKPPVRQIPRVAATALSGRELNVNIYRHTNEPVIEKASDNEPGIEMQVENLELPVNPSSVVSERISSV

5-HT2C [2] = target: T1, 5-HT2C; assay: Competitive radioligand binding (NIMH PDSP); design: expressed in transfected cells
5-HT2B [3] = target: T2, 5-HT2B (Homo sapiens, UniProt P41595); assay: Competitive radioligand binding (NIMH PDSP); design: expressed in transfected cells
T2 sequence (P41595 whole entry): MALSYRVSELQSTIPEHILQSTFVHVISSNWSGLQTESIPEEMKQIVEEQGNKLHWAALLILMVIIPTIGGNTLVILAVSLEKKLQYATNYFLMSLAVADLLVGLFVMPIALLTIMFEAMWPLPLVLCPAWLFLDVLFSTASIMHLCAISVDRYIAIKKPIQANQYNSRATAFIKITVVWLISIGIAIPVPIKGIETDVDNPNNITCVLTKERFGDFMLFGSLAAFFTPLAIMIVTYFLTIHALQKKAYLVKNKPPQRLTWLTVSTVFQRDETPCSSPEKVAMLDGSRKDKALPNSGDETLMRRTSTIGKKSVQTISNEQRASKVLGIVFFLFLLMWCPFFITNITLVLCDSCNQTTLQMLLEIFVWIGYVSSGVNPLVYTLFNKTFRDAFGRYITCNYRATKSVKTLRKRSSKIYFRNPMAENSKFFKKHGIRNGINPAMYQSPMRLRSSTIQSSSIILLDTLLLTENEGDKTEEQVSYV

5-HT2A [4] = target: T3, 5-HT2A (Homo sapiens, UniProt P28223); assay: Ca2+ flux assay, 5-HT2A; assay type: cell-based; design: expressed in transfected cells; settings: for EC50: 5-HT2A EC50, nM; for Emax: read-out: 5-HT2A Emax % 5-HT, Ca2+ flux
T3 sequence (P28223 whole entry): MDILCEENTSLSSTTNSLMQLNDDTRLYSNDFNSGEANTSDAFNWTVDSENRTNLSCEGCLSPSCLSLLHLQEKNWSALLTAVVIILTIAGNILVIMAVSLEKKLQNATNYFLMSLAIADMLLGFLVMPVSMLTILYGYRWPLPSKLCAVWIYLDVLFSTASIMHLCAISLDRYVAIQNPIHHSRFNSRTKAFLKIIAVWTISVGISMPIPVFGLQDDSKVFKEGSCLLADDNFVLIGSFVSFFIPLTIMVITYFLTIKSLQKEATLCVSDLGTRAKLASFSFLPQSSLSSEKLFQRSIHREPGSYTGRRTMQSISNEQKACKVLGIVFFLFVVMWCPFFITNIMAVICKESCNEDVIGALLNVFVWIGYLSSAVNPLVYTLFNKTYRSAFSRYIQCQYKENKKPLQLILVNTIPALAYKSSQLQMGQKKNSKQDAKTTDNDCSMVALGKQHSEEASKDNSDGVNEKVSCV

5-HT3 = target: T4, 5-HT3 (Homo sapiens, UniProt P46098); assay: Competitive radioligand binding (NIMH PDSP)
T4 sequence (P46098 24-478): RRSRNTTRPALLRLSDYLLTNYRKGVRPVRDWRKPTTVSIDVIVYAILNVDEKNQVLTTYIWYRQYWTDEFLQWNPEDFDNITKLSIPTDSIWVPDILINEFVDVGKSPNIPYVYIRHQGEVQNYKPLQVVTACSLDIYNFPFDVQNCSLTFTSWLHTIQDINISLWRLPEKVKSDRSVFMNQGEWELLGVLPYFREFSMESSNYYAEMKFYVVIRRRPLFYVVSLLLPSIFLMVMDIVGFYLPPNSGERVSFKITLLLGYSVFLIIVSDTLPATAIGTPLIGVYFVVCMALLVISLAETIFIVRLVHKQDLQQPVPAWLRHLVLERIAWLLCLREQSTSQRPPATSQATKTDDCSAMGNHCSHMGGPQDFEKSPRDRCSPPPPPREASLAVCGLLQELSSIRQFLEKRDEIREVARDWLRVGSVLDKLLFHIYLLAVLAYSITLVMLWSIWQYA
Outline: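 Compounds dissolved in DMSO were screened at 10,000 nM for displacement of the radioligand from each receptor. Those advanced to Ki determination were tested in triplicate on separate plates alongside a known ligand as positive control. 5-HT2A binding used [3H]-ketanserin with human receptor-expressing membranes.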

5-HT2A [5] = target: T3, 5-HT2A; assay: Competitive radioligand binding (NIMH PDSP)
5-HT1e = 5-HT1e (Homo sapiens, UniProt P28566); assay: Competitive radioligand binding (NIMH PDSP)
5-HT1e, sequence (P28566 whole entry, species assumed): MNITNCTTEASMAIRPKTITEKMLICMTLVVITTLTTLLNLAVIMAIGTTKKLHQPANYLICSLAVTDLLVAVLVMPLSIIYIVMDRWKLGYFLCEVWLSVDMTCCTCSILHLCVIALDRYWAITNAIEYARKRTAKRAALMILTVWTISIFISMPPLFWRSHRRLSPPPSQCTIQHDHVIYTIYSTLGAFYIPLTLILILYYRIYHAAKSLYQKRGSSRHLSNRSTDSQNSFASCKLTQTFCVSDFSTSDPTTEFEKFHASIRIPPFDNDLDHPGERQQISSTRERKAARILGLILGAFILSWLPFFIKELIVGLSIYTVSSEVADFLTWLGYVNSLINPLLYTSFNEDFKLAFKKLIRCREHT

5-HT1D = 5-HT1D (Homo sapiens, UniProt P28221); assay: Competitive radioligand binding (NIMH PDSP)
5-HT1D, sequence (P28221 whole entry, species assumed): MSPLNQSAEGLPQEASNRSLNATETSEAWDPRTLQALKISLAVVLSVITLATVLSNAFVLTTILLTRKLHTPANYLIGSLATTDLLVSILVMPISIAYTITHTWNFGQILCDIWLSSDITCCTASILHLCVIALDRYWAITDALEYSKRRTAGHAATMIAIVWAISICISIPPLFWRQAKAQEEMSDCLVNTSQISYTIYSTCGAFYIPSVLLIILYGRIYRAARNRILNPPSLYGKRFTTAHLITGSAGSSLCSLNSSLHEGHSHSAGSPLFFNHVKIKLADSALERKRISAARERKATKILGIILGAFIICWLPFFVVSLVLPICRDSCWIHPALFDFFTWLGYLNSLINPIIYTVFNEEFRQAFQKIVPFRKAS

5-HT1A = target: T5, 5-HT1A (Homo sapiens, UniProt P08908); assay: Competitive radioligand binding (NIMH PDSP)
T5 sequence (P08908 1-422): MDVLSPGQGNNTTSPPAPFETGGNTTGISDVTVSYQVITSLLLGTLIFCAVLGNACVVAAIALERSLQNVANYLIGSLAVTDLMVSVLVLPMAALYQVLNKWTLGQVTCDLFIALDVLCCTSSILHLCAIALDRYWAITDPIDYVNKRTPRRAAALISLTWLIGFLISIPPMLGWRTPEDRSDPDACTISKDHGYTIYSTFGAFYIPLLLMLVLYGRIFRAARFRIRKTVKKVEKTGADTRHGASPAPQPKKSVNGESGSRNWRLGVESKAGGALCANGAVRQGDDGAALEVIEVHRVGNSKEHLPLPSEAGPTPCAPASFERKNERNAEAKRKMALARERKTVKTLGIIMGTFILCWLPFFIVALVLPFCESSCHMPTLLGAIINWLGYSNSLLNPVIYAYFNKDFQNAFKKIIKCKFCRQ

5-HT1B = 5-HT1B (Homo sapiens, UniProt P28222); assay: Competitive radioligand binding (NIMH PDSP)
5-HT1B, sequence (P28222 whole entry, species assumed): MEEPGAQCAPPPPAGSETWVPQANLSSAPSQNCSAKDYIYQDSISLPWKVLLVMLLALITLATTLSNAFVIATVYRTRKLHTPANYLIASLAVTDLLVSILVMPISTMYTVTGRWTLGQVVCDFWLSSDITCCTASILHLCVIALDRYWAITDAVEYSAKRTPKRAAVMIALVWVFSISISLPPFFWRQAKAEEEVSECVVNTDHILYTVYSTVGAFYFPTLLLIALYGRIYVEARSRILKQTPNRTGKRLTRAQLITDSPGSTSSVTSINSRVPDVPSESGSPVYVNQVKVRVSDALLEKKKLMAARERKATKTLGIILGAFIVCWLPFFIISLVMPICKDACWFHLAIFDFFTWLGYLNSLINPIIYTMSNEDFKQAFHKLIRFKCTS

5-HT2B [6] = target: T2, 5-HT2B; assay: Ca2+ flux assay, 5-HT2B; assay type: cell-based; design: expressed in transfected cells; settings: Ca2+ flux; for Emax: read-out: 5-HT2B Emax % 5-HT
5-HT2A [7] = assay: Ca2+ flux assay, 5-HT2A; assay type: cell-based, human; settings: Gq/11 Ca2+ mobilization; higher number = skewed towards 5-HT2A

Structure (SMILES) | EC50 (5-HT2C [1]) | Emax (5-HT2C [1]) | Ki (5-HT2C [2]) | Ki (5-HT2B [3]) | EC50 (5-HT2A [4]; Ca2+ flux) | Emax (5-HT2A [4]) | Ki (5-HT3) | Ki (5-HT2A [5]) | Ki (5-HT1e) | Ki (5-HT1D) | Ki (5-HT1A) | Ki (5-HT1B) | 5-HT2B EC50, nM (5-HT2B [6]) | Emax (5-HT2B [6]) | 5-HT2A/5-HT2c Selectivity Factor ΔLog(Emax/EC50) (5-HT2A [7]) | 5-HT2C EC50, nM (5-HT2C [1]) | 5-HT2A EC50, nM (5-HT2A [4]; Ca2+ flux)
COc1cc([N+](=O)[O-])c(OC)cc1CCNCc1cccc(C)c1 [25N-NB-3-Me (22), [2-(2,5-dimethoxy-4-nitrophenyl)ethyl][(3-methylphenyl)methyl]amine] | 14.3 nM | 15 ± 2% | 39.8 nM | 2.88 nM | 2.27 nM | 54 ± 1% | > 10000 nM | 0.209 nM | > 10000 nM | 933 nM | 1780 nM | > 10000 nM | No activity | < 10% | 29.1 |  | 
COc1cc([N+](=O)[O-])c(OC)cc1CCNCc1ccccc1I [25N-NBI (10)] | 682 nM | 45 ± 2% | 43.7 nM | 20 nM | 3.29 nM | 88 ± 1% | > 10000 nM | 5.37 nM | > 10000 nM | > 10000 nM | 1000 nM | > 10000 nM | No activity | < 10% | 406 |  | 
COc1cc([N+](=O)[O-])c(OC)cc1CCNCc1cccc2ccccc12 [25N-N-1-Nap (16), [2-(2,5-dimethoxy-4-nitrophenyl)ethyl][(naphthalen-1-yl)methyl]amine] |  | < 10% | 4.27 nM | 1.17 nM |  | < 10% | > 10000 nM | 1.15 nM | > 10000 nM | 871 nM | 240 nM | > 10000 nM | No activity | < 10% | 5-HT2A Selective | No activity | No activity
